Activity calls are given as the source filed them. The calls are words filed in the database; no cut-off is given here.
Columns and labels:
[1] = biological target: Apoptosis regulator Bcl-2 (Homo sapiens, UniProt P10415); test: Time-resolved fluorescence energy transfer (TR-FRET) with BCL2
MOLT-4 = test: CellTiter-Glo Luminescent Cell Viability Assay (BCL-XL dependent cell line MOLT-4); type: functional, cell-based; conditions: Homo sapiens
[2] = biological target: Prostaglandin G/H synthase 2 (Homo sapiens) (UniProt P35354); test: COX2(h) Eurofins-Cerep enzyme and uptake assay; conditions: Compound concentration 10.0 uM
[3] = biological target: cGMP-inhibited 3',5'-cyclic phosphodiesterase 3A (Homo sapiens) (UniProt Q14432); test: PDE3A (h) Eurofins-Cerep enzyme and uptake assay; conditions: Compound concentration 10.0 uM
[4] = biological target: Angiotensin-converting enzyme (Homo sapiens) (UniProt P12821); test: ACE (h) Eurofins-Cerep enzyme and uptake assay; conditions: Compound concentration 10.0 uM
[5] = biological target: Adenosine receptor A1 (Homo sapiens) (UniProt P30542); test: A1 (h) Eurofins-Cerep binding assay; parameters: ligand concentration 1 nM; conditions: filed as antagonist, Compound concentration 10.0 uM
[6] = biological target: Alpha-1A adrenergic receptor (Homo sapiens) (UniProt P35348); test: Alpha1A (h) Eurofins-Cerep binding assay; parameters: ligand concentration 0.1 nM; conditions: filed as antagonist, Compound concentration 10.0 uM
[7] = biological target: T1, Alpha-1B adrenergic receptor (Homo sapiens) (UniProt P35368); test: Alpha1B (h) Eurofins-Cerep binding assay; parameters: ligand concentration 0.15 nM; conditions: filed as antagonist, Compound concentration 10.0 uM
T1 sequence (whole entry): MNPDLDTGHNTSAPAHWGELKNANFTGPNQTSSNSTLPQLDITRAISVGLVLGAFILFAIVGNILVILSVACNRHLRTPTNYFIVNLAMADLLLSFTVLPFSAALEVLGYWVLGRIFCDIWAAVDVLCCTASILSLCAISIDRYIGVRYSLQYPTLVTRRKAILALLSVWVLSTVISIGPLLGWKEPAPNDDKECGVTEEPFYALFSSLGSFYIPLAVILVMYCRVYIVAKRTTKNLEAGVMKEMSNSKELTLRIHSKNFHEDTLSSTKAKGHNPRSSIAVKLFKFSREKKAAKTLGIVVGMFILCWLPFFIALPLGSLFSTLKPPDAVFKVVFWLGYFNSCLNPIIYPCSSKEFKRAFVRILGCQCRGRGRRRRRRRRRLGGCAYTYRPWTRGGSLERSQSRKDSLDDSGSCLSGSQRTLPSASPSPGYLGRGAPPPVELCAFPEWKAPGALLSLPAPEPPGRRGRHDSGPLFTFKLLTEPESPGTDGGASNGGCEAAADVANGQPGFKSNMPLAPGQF

[8] = biological target: T2, Alpha-2A adrenergic receptor (Homo sapiens) (UniProt P08913); test: Alpha2A (h) Eurofins-Cerep binding assay; parameters: ligand concentration 1 nM; conditions: filed as antagonist, Compound concentration 10.0 uM
T2 sequence (whole entry): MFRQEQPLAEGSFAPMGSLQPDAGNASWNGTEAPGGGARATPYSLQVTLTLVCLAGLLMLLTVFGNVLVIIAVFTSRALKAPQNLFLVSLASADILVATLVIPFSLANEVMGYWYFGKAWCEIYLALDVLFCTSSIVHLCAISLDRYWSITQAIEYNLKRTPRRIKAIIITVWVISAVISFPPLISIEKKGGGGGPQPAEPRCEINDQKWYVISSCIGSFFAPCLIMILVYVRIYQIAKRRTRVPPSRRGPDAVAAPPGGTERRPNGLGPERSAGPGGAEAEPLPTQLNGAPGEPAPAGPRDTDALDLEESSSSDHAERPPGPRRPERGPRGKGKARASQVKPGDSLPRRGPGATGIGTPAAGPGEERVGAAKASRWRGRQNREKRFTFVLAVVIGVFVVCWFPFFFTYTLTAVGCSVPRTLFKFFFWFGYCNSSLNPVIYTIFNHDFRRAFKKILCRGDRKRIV

[9] = biological target: Type-2 angiotensin II receptor (Homo sapiens) (UniProt P50052); test: AT2 (h) Eurofins-Cerep binding assay; parameters: ligand concentration 0.01 nM; conditions: filed as agonist, Compound concentration 10.0 uM
[10] = biological target: Translocator protein (Rattus norvegicus) (UniProt P16257); test: BZD (peripheral) Eurofins-Cerep binding assay; parameters: ligand concentration 0.2 nM; conditions: filed as antagonist, Compound concentration 10.0 uM
[11] = biological target: D(1A) dopamine receptor (Homo sapiens) (UniProt P21728); test: D1 (h) Eurofins-Cerep binding assay; parameters: ligand concentration 0.3 nM; conditions: filed as antagonist, Compound concentration 10.0 uM
[12] = biological target: D(2) dopamine receptor (Homo sapiens) (UniProt P14416); test: D2S (h) Eurofins-Cerep binding assay; parameters: ligand concentration 0.3 nM; conditions: filed as antagonist, Compound concentration 10.0 uM
[13] = biological target: Endothelin receptor type B (Homo sapiens) (UniProt P24530); test: ETB (h) Eurofins-Cerep binding assay; parameters: ligand concentration 0.03 nM; conditions: filed as agonist, Compound concentration 10.0 uM
[14] = biological target: GABA-A receptor; alpha-1/beta-2/gamma-2 (Homo sapiens) (UniProt P14867+P47870+P18507); test: GABAA1 (h) (alpha1,beta2,gamma2) Eurofins-Cerep binding assay; type: protein-complex assay; parameters: ligand concentration 15 nM; conditions: filed as agonist, Compound concentration 10.0 uM
[15] = biological target: Glutamate NMDA receptor (Rattus norvegicus) (UniProt P35439+Q00959+Q00960+Q00961+Q62645+Q8VHN2+Q9R1M7); test: NMDA Eurofins-Cerep binding assay; type: protein-complex assay; parameters: ligand concentration 5 nM; conditions: filed as antagonist, Compound concentration 10.0 uM
[16] = biological target: T3, Muscarinic acetylcholine receptor M5 (Homo sapiens) (UniProt P08912); test: M5 (h) Eurofins-Cerep binding assay; parameters: ligand concentration 0.3 nM; conditions: filed as antagonist, Compound concentration 10.0 uM
T3 sequence (whole entry): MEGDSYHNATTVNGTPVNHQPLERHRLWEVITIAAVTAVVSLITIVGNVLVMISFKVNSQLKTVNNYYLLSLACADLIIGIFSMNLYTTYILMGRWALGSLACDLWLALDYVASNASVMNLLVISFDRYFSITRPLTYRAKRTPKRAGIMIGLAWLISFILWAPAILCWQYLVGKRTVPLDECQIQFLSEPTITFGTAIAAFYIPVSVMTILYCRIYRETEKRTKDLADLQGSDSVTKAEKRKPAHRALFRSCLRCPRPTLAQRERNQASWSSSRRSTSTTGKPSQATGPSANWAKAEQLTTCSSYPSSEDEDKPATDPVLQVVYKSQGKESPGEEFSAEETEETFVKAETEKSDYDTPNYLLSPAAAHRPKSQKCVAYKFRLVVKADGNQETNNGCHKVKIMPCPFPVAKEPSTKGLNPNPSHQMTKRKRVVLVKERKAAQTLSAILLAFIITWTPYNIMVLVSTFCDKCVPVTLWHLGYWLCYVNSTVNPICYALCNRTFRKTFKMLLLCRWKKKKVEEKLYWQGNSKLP

[17] = biological target: Substance-K receptor (Homo sapiens) (UniProt P21452); test: NK2 (h) Eurofins-Cerep binding assay; parameters: ligand concentration 0.1 nM; conditions: filed as agonist, Compound concentration 10.0 uM
[18] = biological target: Delta-type opioid receptor (Homo sapiens, UniProt P41143); test: delta (DOP) (h) Eurofins-Cerep binding assay; parameters: ligand concentration 0.5 nM; conditions: filed as agonist, Compound concentration 10.0 uM
[19] = biological target: Prostaglandin E2 receptor EP2 subtype (Homo sapiens) (UniProt P43116); test: EP2 (h) Eurofins-Cerep binding assay; parameters: ligand concentration 3 nM; conditions: filed as agonist, Compound concentration 10.0 uM
[20] = biological target: Sigma non-opioid intracellular receptor 1 (Homo sapiens, UniProt Q99720); test: sigma (non-selective) (h) Eurofins-Cerep binding assay; parameters: ligand concentration 10 nM; conditions: filed as agonist, Compound concentration 10.0 uM
[21] = biological target: Vasopressin V1a receptor (Homo sapiens) (UniProt P37288); test: V1 a (h) Eurofins-Cerep binding assay; parameters: ligand concentration 0.3 nM; conditions: filed as agonist, Compound concentration 10.0 uM
Rattus norvegicus = species on record: Rattus norvegicus; test: SKCa channel Eurofins-Cerep binding assay; parameters: ligand concentration 0.007 nM; conditions: filed as antagonist, Compound concentration 10.0 uM
[22] = biological target: Sodium-dependent dopamine transporter (Homo sapiens) (UniProt Q01959); test: dopamine transporter (h) Eurofins-Cerep binding assay; parameters: ligand concentration 4 nM; conditions: filed as antagonist, Compound concentration 10.0 uM
[23] = biological target: Sodium- and chloride-dependent GABA transporter 1 (Rattus norvegicus) (UniProt P23978); test: GABA transporter Eurofins-Cerep binding assay; parameters: ligand concentration 10 nM; conditions: filed as antagonist, Compound concentration 10.0 uM

Chain of Delta-type opioid receptor (P41143 whole entry): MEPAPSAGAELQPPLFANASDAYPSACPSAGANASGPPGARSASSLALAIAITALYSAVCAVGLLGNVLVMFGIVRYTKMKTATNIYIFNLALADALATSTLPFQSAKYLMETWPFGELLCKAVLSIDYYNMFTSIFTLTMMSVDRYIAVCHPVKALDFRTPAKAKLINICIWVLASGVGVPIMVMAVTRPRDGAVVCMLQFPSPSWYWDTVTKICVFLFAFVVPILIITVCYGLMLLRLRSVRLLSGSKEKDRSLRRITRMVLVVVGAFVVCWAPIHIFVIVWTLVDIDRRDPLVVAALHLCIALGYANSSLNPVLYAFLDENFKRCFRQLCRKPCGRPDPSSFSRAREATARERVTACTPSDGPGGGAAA
Chain of Prostaglandin G/H synthase 2 (Homo sapiens) (P35354 whole entry): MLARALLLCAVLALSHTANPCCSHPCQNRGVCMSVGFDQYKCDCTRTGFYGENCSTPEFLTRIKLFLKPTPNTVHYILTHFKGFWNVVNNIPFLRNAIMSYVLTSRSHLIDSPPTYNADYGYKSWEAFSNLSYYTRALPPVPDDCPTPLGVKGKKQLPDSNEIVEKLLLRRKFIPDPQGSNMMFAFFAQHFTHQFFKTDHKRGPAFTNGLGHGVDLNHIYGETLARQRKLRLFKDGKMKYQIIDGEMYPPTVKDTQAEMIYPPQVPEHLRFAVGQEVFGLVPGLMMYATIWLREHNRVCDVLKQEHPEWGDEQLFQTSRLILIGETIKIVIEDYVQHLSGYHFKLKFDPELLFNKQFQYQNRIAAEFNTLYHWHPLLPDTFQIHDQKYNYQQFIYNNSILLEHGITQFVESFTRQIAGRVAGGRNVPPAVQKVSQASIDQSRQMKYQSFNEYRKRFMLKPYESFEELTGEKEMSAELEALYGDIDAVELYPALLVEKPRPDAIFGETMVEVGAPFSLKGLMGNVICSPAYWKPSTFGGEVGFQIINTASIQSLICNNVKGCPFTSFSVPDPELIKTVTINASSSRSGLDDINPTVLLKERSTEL
Chain of Substance-K receptor (Homo sapiens) (P21452 whole entry): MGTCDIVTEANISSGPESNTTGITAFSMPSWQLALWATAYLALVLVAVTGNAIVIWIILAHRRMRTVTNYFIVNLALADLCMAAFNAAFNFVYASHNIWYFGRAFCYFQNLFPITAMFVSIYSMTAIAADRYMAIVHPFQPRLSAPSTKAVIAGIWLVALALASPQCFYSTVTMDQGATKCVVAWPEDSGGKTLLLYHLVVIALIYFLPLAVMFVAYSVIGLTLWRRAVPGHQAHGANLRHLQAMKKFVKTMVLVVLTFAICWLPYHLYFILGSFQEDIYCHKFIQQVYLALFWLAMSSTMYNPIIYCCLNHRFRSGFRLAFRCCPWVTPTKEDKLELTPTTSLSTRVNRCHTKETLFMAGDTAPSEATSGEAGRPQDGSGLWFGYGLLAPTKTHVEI
Chain of Alpha-1A adrenergic receptor (Homo sapiens) (P35348 whole entry): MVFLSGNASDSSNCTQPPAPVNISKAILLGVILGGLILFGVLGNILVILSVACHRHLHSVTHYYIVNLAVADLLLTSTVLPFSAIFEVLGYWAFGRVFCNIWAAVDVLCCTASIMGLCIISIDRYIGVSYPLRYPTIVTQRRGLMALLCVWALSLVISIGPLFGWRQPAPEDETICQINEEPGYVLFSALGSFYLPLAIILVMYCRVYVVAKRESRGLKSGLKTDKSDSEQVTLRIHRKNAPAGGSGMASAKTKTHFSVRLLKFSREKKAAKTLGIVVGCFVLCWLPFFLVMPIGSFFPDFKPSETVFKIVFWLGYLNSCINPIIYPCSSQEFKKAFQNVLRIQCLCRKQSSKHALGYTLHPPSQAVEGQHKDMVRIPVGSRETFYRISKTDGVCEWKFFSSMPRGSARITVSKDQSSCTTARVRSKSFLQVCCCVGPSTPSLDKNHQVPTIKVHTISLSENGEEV
Chain of Adenosine receptor A1 (Homo sapiens) (P30542 whole entry): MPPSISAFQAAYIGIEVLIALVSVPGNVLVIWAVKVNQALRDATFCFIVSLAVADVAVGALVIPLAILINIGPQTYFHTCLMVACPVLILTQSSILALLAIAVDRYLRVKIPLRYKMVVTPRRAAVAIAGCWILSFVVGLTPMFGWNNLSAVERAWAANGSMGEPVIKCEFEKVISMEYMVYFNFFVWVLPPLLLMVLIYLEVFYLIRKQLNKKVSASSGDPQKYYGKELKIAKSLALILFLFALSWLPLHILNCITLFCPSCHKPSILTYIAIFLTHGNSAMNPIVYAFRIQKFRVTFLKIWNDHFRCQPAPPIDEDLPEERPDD
Chain of Prostaglandin E2 receptor EP2 subtype (Homo sapiens) (P43116 whole entry): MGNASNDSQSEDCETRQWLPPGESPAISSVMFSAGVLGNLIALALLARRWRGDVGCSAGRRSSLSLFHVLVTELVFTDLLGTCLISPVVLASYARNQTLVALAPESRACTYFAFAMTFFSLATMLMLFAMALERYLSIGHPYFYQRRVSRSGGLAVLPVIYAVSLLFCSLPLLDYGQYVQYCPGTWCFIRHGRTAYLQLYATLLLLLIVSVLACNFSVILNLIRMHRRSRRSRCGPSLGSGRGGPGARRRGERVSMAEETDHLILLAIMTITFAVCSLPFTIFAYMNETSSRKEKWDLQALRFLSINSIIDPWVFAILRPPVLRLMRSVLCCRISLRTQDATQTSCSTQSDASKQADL
Chain of Angiotensin-converting enzyme (Homo sapiens) (P12821 whole entry): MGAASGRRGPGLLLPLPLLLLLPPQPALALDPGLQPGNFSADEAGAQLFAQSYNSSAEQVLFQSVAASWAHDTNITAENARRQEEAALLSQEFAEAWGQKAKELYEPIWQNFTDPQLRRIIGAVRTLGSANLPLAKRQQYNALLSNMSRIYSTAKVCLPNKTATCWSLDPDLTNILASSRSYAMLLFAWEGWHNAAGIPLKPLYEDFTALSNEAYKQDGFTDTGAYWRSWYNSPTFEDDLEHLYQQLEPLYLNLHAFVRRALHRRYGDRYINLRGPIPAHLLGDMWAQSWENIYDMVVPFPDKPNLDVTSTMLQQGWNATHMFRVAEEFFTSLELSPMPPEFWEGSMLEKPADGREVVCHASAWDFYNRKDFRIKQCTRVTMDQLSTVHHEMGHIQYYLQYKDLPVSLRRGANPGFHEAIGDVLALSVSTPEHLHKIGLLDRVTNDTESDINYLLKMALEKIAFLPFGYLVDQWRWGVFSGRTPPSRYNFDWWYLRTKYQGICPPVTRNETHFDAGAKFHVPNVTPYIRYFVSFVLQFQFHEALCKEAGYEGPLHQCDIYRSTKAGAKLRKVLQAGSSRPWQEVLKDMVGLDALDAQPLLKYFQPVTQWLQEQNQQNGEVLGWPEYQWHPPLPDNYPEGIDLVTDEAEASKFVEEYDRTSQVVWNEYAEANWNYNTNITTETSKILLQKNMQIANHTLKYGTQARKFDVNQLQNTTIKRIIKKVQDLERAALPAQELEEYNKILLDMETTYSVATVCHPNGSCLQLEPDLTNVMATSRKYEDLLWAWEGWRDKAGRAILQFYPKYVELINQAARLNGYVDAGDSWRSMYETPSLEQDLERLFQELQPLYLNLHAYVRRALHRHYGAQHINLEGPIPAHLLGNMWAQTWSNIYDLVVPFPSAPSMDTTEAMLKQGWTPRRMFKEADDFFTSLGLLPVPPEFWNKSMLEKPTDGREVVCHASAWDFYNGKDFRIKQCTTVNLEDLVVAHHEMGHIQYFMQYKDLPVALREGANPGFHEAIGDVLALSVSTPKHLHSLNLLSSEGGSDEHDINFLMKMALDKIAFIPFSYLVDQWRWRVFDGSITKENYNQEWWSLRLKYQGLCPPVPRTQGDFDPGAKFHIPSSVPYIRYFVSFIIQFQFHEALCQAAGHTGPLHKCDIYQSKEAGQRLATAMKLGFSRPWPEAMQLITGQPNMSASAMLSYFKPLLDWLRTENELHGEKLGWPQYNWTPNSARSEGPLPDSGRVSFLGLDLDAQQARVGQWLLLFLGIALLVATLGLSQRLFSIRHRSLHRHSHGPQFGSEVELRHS
Chain of Apoptosis regulator Bcl-2 (P10415 whole entry): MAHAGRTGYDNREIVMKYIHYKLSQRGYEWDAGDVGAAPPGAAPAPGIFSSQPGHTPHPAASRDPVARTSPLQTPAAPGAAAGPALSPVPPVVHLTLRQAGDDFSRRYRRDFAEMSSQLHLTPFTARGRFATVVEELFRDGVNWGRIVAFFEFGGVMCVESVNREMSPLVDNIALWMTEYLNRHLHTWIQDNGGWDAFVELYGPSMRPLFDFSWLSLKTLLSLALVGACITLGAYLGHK
Chain of Translocator protein (Rattus norvegicus) (P16257 whole entry, looked up): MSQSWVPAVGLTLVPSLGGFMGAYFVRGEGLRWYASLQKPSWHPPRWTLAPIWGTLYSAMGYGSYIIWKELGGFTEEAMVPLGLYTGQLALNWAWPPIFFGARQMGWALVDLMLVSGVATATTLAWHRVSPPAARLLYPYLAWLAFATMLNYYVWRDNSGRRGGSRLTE

| Compound | IC50 [1] | EC50 (MOLT-4) | % Inhibition of Control Values (Mean n=2) [2] [%] | % Inhibition of Control Values (Mean n=2) [3] [%] | % Inhibition of Control Values (Mean n=2) [4] [%] | % Inhibition of Control Specific Binding (Mean n=2) [5] [%] | % Inhibition of Control Specific Binding (Mean n=2) [6] [%] | % Inhibition of Control Specific Binding (Mean n=2) [7] [%] | % Inhibition of Control Specific Binding (Mean n=2) [8] [%] | % Inhibition of Control Specific Binding (Mean n=2) [9] [%] | % Inhibition of Control Specific Binding (Mean n=2) [10] [%] | % Inhibition of Control Specific Binding (Mean n=2) [11] [%] | % Inhibition of Control Specific Binding (Mean n=2) [12] [%] | % Inhibition of Control Specific Binding (Mean n=2) [13] [%] | % Inhibition of Control Specific Binding (Mean n=2) [14] [%] | % Inhibition of Control Specific Binding (Mean n=2) [15] [%] | % Inhibition of Control Specific Binding (Mean n=2) [16] [%] | % Inhibition of Control Specific Binding (Mean n=2) [17] [%] | % Inhibition of Control Specific Binding (Mean n=2) [18] [%] | % Inhibition of Control Specific Binding (Mean n=2) [19] [%] | also measured |
| --- | --- | --- | --- | --- | --- | --- | --- | --- | --- | --- | --- | --- | --- | --- | --- | --- | --- | --- | --- | --- | --- |
| O=C(Nc1nc2ccccc2s1)c1cccc2c1CN(c1nc(C(=O)O)c(CCOc3ccc(-n4ncc5cncnc54)cc3)s1)CC2 [A-1107969] | 3.78 µM (not active) | > 10 µM (not active) | 65.5 | -7.5 | -17 | 7.9 | -6.1 | -4.7 | 1.9 | 1.5 | 77.2 | 3.5 | 13.5 | 0.8 | -19.5 | 7.8 | 8.8 | 5.3 | -1.8 | 60.3 | % Inhibition of Control Specific Binding (Mean n=2) [20]: -47.8%; % Inhibition of Control Specific Binding (Mean n=2) [21]: 4.8%; % Inhibition of Control Specific Binding (Mean n=2) (Rattus norvegicus): -12.2%; % Inhibition of Control Specific Binding (Mean n=2) [22]: 3.6%; % Inhibition of Control Specific Binding (Mean n=2) [23]: -1.5% |
| CN(C)CC#Cc1ccc(OCCCc2sc(N3CCc4cccc(C(=O)Nc5nc6ccccc6s5)c4C3)nc2C(=O)O)c(F)c1 [A-1155463] | 0.382 µM (not active) | 0.214 µM (active) | 62.2 | -17.3 | 22.1 | 60.6 | 6.7 | 15.5 | 12.1 | 1.1 | 41.3 | 26.2 | 27.1 | 9.6 | -2.9 | 21.6 | 10.3 | 25.6 | 77.9 | 33.8 | % Inhibition of Control Specific Binding (Mean n=2) [20]: 57.8%; % Inhibition of Control Specific Binding (Mean n=2) [21]: 5.3%; % Inhibition of Control Specific Binding (Mean n=2) (Rattus norvegicus): -3.7%; % Inhibition of Control Specific Binding (Mean n=2) [22]: 31.6%; % Inhibition of Control Specific Binding (Mean n=2) [23]: 17.3% |
